Experimental data: ChEMBL document CHEMBL1138365, “Application of 3D-QSAR for identification of descriptors defining bioactivity of antimicrobial peptides” (2007)
Values after ≈ are worked out from the molar mass of the structure shown. Starred links: 1 amine or outer side, 2 acyl side, 3 side chain; linkers in the order of their positions; H or OH if unused. Non-standard residues stand in square brackets, D forms with d. Residues, ends and D or L forms follow the SMILES beside them. ξ: configuration not given here. Pro(3ξ,4ξ-(CH2)4) = O=C(O)[C@H]1NCC2CCCCC21; Oic = O=C(O)[C@@H]1C[C@@H]2CCCC[C@@H]2N1; Phe(4-F) = N[C@@H](Cc1ccc(F)cc1)C(=O)O; Ethylenediamine = C(CN[*:2])N[*:1]; Tic = O=C(O)[C@@H]1Cc2ccccc2CN1; dTic = O=C(O)[C@H]1Cc2ccccc2CN1; βAla = NCCC(=O)O

Assays:
[1] = system: Staphylococcus aureus; test: Antibacterial activity against Staphylococcus aureus; format: functional
[2] = system: Mycolicibacterium fortuitum; test: Antibacterial activity against Mycobacterium ranae; format: functional

Row | SMILES | MIC [1] [µM] | MIC [2] [µM]
1 | CC(=O)NCC(=O)N[C@@H](Cc1ccccc1)C(=O)N1Cc2ccccc2C[C@H]1C(=O)N1[C@H](C(=O)NCC(=O)N[C@@H](CCCCN)C(=O)N2Cc3ccccc3C[C@H]2C(=O)N2[C@H](C(=O)NCC(=O)N[C@@H](Cc3ccccc3)C(=O)N3Cc4ccccc4C[C@H]3C(=O)N3[C@H](C(=O)NCC(=O)N[C@@H](CCCCN)C(=O)N4Cc5ccccc5C[C@H]4C(=O)N[C@@H](CCCCN)C(=O)N[C@@H](CCCCN)C(=O)N[C@@H](CCCCN)C(=O)N[C@@H](CCCCN)C(=O)NCCN)C[C@@H]4CCCC[C@@H]43)C[C@@H]3CCCC[C@@H]32)C[C@@H]2CCCC[C@@H]21 (Ac-GF[Tic][Oic]GK[Tic][Oic]GF[Tic][Oic]GK[Tic]KKKK-Ethylenediamine) | 3 (≈ 7.45 µg/mL) | 10 (≈ 24.8 µg/mL)
2 | CC(=O)NCCC(=O)N[C@@H](Cc1ccccc1)C(=O)N1Cc2ccccc2C[C@H]1C(=O)N1CC2CCCCC2[C@H]1C(=O)NCCC(=O)N[C@@H](CCCCN)C(=O)N1Cc2ccccc2C[C@H]1C(=O)N1CC2CCCCC2[C@H]1C(=O)NCCC(=O)N[C@@H](Cc1ccccc1)C(=O)N1Cc2ccccc2C[C@@H]1C(=O)N1CC2CCCCC2[C@H]1C(=O)NCCC(=O)N[C@@H](CCCCN)C(=O)N1Cc2ccccc2C[C@H]1C(=O)N[C@@H](CCCCN)C(=O)N[C@@H](CCCCN)C(=O)N[C@@H](CCCCN)C(=O)N[C@@H](CCCCN)C(N)=O (some centres not stated) (Ac-[βAla]F[Tic][Pro(3ξ,4ξ-(CH2)4)][βAla]K[Tic][Pro(3ξ,4ξ-(CH2)4)][βAla]F[dTic][Pro(3ξ,4ξ-(CH2)4)][βAla]K[Tic]KKKK-NH2) | 10 (≈ 25 µg/mL) | 1 (≈ 2.5 µg/mL)
3 | CC(=O)NCC(=O)N[C@@H](Cc1ccc(F)cc1)C(=O)N1Cc2ccccc2C[C@H]1C(=O)N1CC2CCCCC2[C@H]1C(=O)NCC(=O)N[C@@H](CCCCN)C(=O)N1Cc2ccccc2C[C@H]1C(=O)N1CC2CCCCC2[C@H]1C(=O)NCC(=O)N[C@@H](Cc1ccc(F)cc1)C(=O)N1Cc2ccccc2C[C@H]1C(=O)N1CC2CCCCC2[C@H]1C(=O)NCC(=O)N[C@@H](CCCCN)C(=O)N1Cc2ccccc2C[C@H]1C(=O)N[C@@H](CCCCN)C(=O)N[C@@H](CCCCN)C(=O)N[C@@H](CCCCN)C(=O)N[C@@H](CCCCN)C(N)=O (some centres not stated) (Ac-G[Phe(4-F)][Tic][Pro(3ξ,4ξ-(CH2)4)]GK[Tic][Pro(3ξ,4ξ-(CH2)4)]G[Phe(4-F)][Tic][Pro(3ξ,4ξ-(CH2)4)]GK[Tic]KKKK-NH2) | 10 (≈ 24.8 µg/mL) | 3 (≈ 7.43 µg/mL)
4 | CC(=O)N[C@@H](Cc1ccccc1)C(=O)N1Cc2ccccc2C[C@H]1C(=O)N1CC2CCCCC2[C@H]1C(=O)N[C@@H](CCCCN)C(=O)N1Cc2ccccc2C[C@H]1C(=O)N1CC2CCCCC2[C@H]1C(=O)N[C@@H](Cc1ccccc1)C(=O)N1Cc2ccccc2C[C@H]1C(=O)N1CC2CCCCC2[C@H]1C(=O)N[C@@H](CCCCN)C(=O)N1Cc2ccccc2C[C@H]1C(=O)N[C@@H](CCCCN)C(=O)N[C@@H](CCCCN)C(=O)N[C@@H](CCCCN)C(=O)N[C@@H](CCCCN)C(=O)N[C@@H](CCCCN)C(=O)N[C@@H](CCCCN)C(N)=O (some centres not stated) (Ac-F[Tic][Pro(3ξ,4ξ-(CH2)4)]K[Tic][Pro(3ξ,4ξ-(CH2)4)]F[Tic][Pro(3ξ,4ξ-(CH2)4)]K[Tic]KKKKKK-NH2) | 3 (≈ 7.41 µg/mL) | 3 (≈ 7.41 µg/mL)
5 | CC(C)C[C@H](NC(=O)CNC(=O)[C@H](CCCCN)NC(=O)CN)C(=O)N1Cc2ccccc2C[C@H]1C(=O)N1CC2CCCCC2[C@H]1C(=O)N[C@H](Cc1ccccc1)C(=O)N[C@H](CCCCN)C(=O)N1Cc2ccccc2C[C@@H]1C(=O)N1CC2CCCCC2[C@H]1C(=O)N[C@H](CCCCN)C(=O)N[C@H](Cc1ccccc1)C(=O)N1Cc2ccccc2C[C@H]1C(=O)N1CC2CCCCC2[C@@H]1C(=O)N[C@H](Cc1ccccc1)C(=O)N[C@H](CCCCN)C(=O)N1Cc2ccccc2C[C@@H]1C(=O)N1CC2CCCCC2[C@H]1C(=O)N[C@@H](CCCCN)C(=O)N[C@@H](Cc1ccccc1)C(=O)N1Cc2ccccc2C[C@@H]1C(=O)N1CC2CCCCC2[C@H]1C(=O)N[C@H](Cc1ccccc1)C(=O)N[C@H](CCCCN)C(=O)N1Cc2ccccc2C[C@@H]1C(=O)N1CC2CCCCC2[C@@H]1C(=O)N[C@H](Cc1ccccc1)C(=O)N[C@@H](CCCCN)C(=O)N[C@@H](CCCNC(=N)N)C(N)=O (some centres not stated) | 30 (≈ 121 µg/mL) | 
6 | CC(=O)NCC(=O)N[C@@H](Cc1ccccc1)C(=O)N1Cc2ccccc2C[C@H]1C(=O)NCC(=O)N[C@@H](CCCCN)C(=O)N1Cc2ccccc2C[C@H]1C(=O)NCC(=O)N[C@@H](Cc1ccccc1)C(=O)N1Cc2ccccc2C[C@H]1C(=O)NCC(=O)N[C@@H](CCCCN)C(=O)N1Cc2ccccc2C[C@H]1C(=O)N[C@@H](CCCCN)C(=O)N[C@@H](CCCCN)C(=O)N[C@@H](CCCCN)C(=O)N[C@@H](CCCCN)C(N)=O (Ac-GF[Tic]GK[Tic]GF[Tic]GK[Tic]KKKK-NH2) |  | 30 (≈ 59.6 µg/mL)
7 | CC(=O)NCC(=O)N[C@@H](Cc1ccccc1)C(=O)N1Cc2ccccc2C[C@H]1C(=O)NCC(=O)NCC(=O)N[C@@H](CCCCN)C(=O)N1Cc2ccccc2C[C@H]1C(=O)NCC(=O)NCC(=O)N[C@@H](Cc1ccccc1)C(=O)N1Cc2ccccc2C[C@H]1C(=O)NCC(=O)NCC(=O)N[C@@H](CCCCN)C(=O)N1Cc2ccccc2C[C@H]1C(=O)N[C@@H](CCCCN)C(=O)N[C@@H](CCCCN)C(=O)N[C@@H](CCCCN)C(=O)N[C@@H](CCCCN)C(N)=O (Ac-GF[Tic]GGK[Tic]GGF[Tic]GGK[Tic]KKKK-NH2) |  | 30 (≈ 64.8 µg/mL)
8 | CC(C)C[C@H](NC(=O)CNC(=O)[C@H](CCCCN)NC(=O)CN)C(=O)N1Cc2ccccc2C[C@H]1C(=O)N1CC2CCCCC2[C@H]1C(=O)NCC(=O)N[C@@H](CCCCN)C(=O)N1Cc2ccccc2C[C@H]1C(=O)N1CC2CCCCC2[C@H]1C(=O)NCC(=O)N[C@@H](Cc1ccccc1)C(=O)N1Cc2ccccc2C[C@H]1C(=O)N1CC2CCCCC2[C@H]1C(=O)NCC(=O)N[C@@H](CCCCN)C(=O)N1Cc2ccccc2C[C@H]1C(=O)N1CC2CCCCC2[C@H]1C(=O)NCC(=O)N[C@@H](Cc1ccccc1)C(=O)N1Cc2ccccc2C[C@H]1C(=O)N1CC2CCCCC2[C@H]1C(=O)NCC(=O)N[C@@H](CCCCN)C(=O)N1Cc2ccccc2C[C@H]1C(=O)N1CC2CCCCC2[C@H]1C(=O)NCC(=O)N[C@@H](CCCCN)C(=O)N[C@@H](CCCNC(=N)N)C(N)=O (some centres not stated) (H-GKGL[Tic][Pro(3ξ,4ξ-(CH2)4)]GK[Tic][Pro(3ξ,4ξ-(CH2)4)]GF[Tic][Pro(3ξ,4ξ-(CH2)4)]GK[Tic][Pro(3ξ,4ξ-(CH2)4)]GF[Tic][Pro(3ξ,4ξ-(CH2)4)]GK[Tic][Pro(3ξ,4ξ-(CH2)4)]GKR-NH2) | 10 (≈ 35.4 µg/mL) | 
9 | CC(C)C[C@H](NC(=O)CNC(=O)[C@@H]1C2CCCCC2CN1C(=O)[C@@H]1Cc2ccccc2CN1C(=O)[C@H](CC(C)C)NC(=O)CNC(=O)[C@@H]1C2CCCCC2CN1C(=O)[C@@H]1Cc2ccccc2CN1C(=O)[C@H](CCCCN)NC(=O)CNC(=O)[C@@H]1C2CCCCC2CN1C(=O)[C@@H]1Cc2ccccc2CN1C(=O)[C@H](CC(C)C)NC(=O)CNC(=O)[C@@H]1C2CCCCC2CN1C(=O)[C@@H]1Cc2ccccc2CN1C(=O)[C@H](CCCCN)NC(=O)CNC(=O)[C@@H]1C2CCCCC2CN1C(=O)[C@@H]1Cc2ccccc2CN1C(=O)[C@H](CC(C)C)NC(=O)CNC(=O)[C@@H]1C2CCCCC2CN1C(=O)[C@@H]1Cc2ccccc2CN1C(=O)[C@@H](CC(C)C)NC(=O)CNC(=O)[C@H](CCCCN)NC(=O)CN)C(=O)N[C@@H](CCCNC(=N)N)C(N)=O (some centres not stated) | 100 (≈ 344 µg/mL) | 
10 | CC(C)C[C@H](NC(=O)CNC(=O)[C@@H]1C2CCCCC2CN1C(=O)[C@@H]1Cc2ccccc2CN1C(=O)[C@H](CCCCN)NC(=O)CNC(=O)[C@@H]1C2CCCCC2CN1C(=O)[C@@H]1Cc2ccccc2CN1C(=O)[C@H](CC(C)C)NC(=O)CNC(=O)[C@@H]1C2CCCCC2CN1C(=O)[C@@H]1Cc2ccccc2CN1C(=O)[C@H](CCCCN)NC(=O)CNC(=O)[C@@H]1C2CCCCC2CN1C(=O)[C@@H]1Cc2ccccc2CN1C(=O)[C@@H](CC(C)C)NC(=O)CNC(=O)[C@H](CCCCN)NC(=O)CN)C(=O)N1Cc2ccccc2C[C@H]1C(=O)N1CC2CCCCC2[C@H]1C(=O)NCC(=O)N[C@@H](CCCCN)C(=O)N1Cc2ccccc2C[C@H]1C(=O)N1CC2CCCCC2[C@H]1C(=O)NCC(=O)N[C@@H](CCCCN)C(=O)N[C@@H](CCCNC(=N)N)C(N)=O (some centres not stated) | 10 (≈ 34.7 µg/mL) | 
11 | CC(=O)NCC(=O)N[C@@H](Cc1ccccc1)C(=O)NCC(=O)N1CC2CCCCC2[C@H]1C(=O)NCC(=O)N[C@@H](CCCCN)C(=O)NCC(=O)N1CC2CCCCC2[C@H]1C(=O)NCC(=O)N[C@@H](Cc1ccccc1)C(=O)NCC(=O)N1CC2CCCCC2[C@H]1C(=O)NCC(=O)N[C@@H](CCCCN)C(=O)NCC(=O)N[C@@H](CCCCN)C(=O)N[C@@H](CCCCN)C(=O)N[C@@H](CCCCN)C(=O)N[C@@H](CCCCN)C(N)=O (some centres not stated) (Ac-GFG[Pro(3ξ,4ξ-(CH2)4)]GKG[Pro(3ξ,4ξ-(CH2)4)]GFG[Pro(3ξ,4ξ-(CH2)4)]GKGKKKK-NH2) |  | 100 (≈ 203 µg/mL)
12 | CC(C)C[C@@H](NC(=O)CNC(=O)[C@H](CCCCN)NC(=O)CN)C(=O)N1Cc2ccccc2C[C@H]1C(=O)N1CC2CCCCC2[C@H]1C(=O)NCC(=O)N[C@@H](CCCNC(=N)N)C(=O)N1Cc2ccccc2C[C@H]1C(=O)N1CC2CCCCC2[C@H]1C(=O)NCC(=O)N[C@@H](Cc1ccccc1)C(=O)N1Cc2ccccc2C[C@H]1C(=O)N1CC2CCCCC2[C@H]1C(=O)NCC(=O)N[C@@H](CCCNC(=N)N)C(=O)N1Cc2ccccc2C[C@H]1C(=O)N1CC2CCCCC2[C@H]1C(=O)NCC(=O)N[C@@H](Cc1ccccc1)C(=O)N1Cc2ccccc2C[C@H]1C(=O)N1CC2CCCCC2[C@H]1C(=O)NCC(=O)N[C@@H](CCCNC(=N)N)C(=O)N1Cc2ccccc2C[C@H]1C(=O)N1CC2CCCCC2[C@H]1C(=O)NCC(=O)N[C@@H](CCCCN)C(=O)N[C@@H](CCCNC(=N)N)C(N)=O (some centres not stated) | 10 (≈ 36.2 µg/mL) | 
13 | CC(=O)NCC(=O)N[C@@H](Cc1ccccc1)C(=O)N1CC2CCCCC2[C@H]1C(=O)NCC(=O)N[C@@H](CCCCN)C(=O)N1CC2CCCCC2[C@H]1C(=O)NCC(=O)N[C@@H](Cc1ccccc1)C(=O)N1CC2CCCCC2[C@H]1C(=O)NCC(=O)N[C@@H](CCCCN)C(=O)N[C@@H](CCCCN)C(=O)N[C@@H](CCCCN)C(=O)N[C@@H](CCCCN)C(=O)N[C@@H](CCCCN)C(N)=O (some centres not stated) (Ac-GF[Pro(3ξ,4ξ-(CH2)4)]GK[Pro(3ξ,4ξ-(CH2)4)]GF[Pro(3ξ,4ξ-(CH2)4)]GKKKKK-NH2) |  | 100 (≈ 180 µg/mL)
